Experimental data as given in patent publication US20260315446A1, “ANTIFUNGAL COMPOUNDS AND USES THEREOF” (priority 2023, published 2026).
Values after ≈ are worked out from the molar mass of the structure shown. “Also recorded” adds a separate entry of the source. Read-outs that look alike come from different tables or passages of the source.

Assays:
[1] = system: C. neoformans; assay: MIC assay (Example 4); type: cell-based, Cryptococcus neoformans; settings: for MIC: Cryptococcus neoformans
Experimental: Both JH-FK-10 and JH-FK-11 maintained in vitro antifungal activity against C. neoformans with MICs of 0.8 and 1.6 μg/mL, respectively (Table 11).
In vitro antifungal activity of FK506, FK520, and analogs was assessed in RPMI 1640 (Sigma-Aldrich) for all strains tested. Minimum inhibitory concentrations (MIC) for each drug were measured using modified Clinical and Laboratory Standards Institute (CLSI) M38-A2 and M27-A3 standard in vitro antifungal susceptibility protocols. Broth microdilution assays for MIC assessment were performed as previously described. All antifungal assays with C. neoformans were performed at 37° C.

[2] = system: IL-2 expression in primary murine CD4+ T cells; assay: In vitro immunosuppressive activity, IL-2 expression (Example 4); type: cell-based, mouse; settings: for IC50: Mus musculus, CD4+ T
Experimental: Spleen and lymph nodes were collected from C57BL/6 mice and homogenized through a 40 μm filter. Pan-CD4^+ T cells were enriched using MagniSort Mouse CD4 T cell Kit (eBioscience) according to the manufacturer's protocol. Thereafter, CD4+CD25−CD44lo CD62Lhi naïve T cells were FACS-sorted. The naïve CD4+ T cells were grown in Iscove's Modified Dulbecco's Medium (IMDM) supplemented with glutamine, penicillin, streptomycin, gentamicin, 2-mercaptoethanol, and 10% FBS. Cells were then cultured on anti-hamster IgG coated plates in the presence of hamster anti-CD3 epsilon and anti-CD28 antibodies (BD Biosciences), neutralizing anti-IL-4 antibody (eBioscience), recombinant IL-12 (10 ng/mL), and recombinant IL-2 (50 U/mL) for 72 h. During this period, cells were grown in the presence of 2× serially diluted FK506, FK520, or analog suspended in DMSO for 72 h. During the last 4 h of culture, phorbol 12-myristate 13-acetate (PMA; Sigma), ionomycin (Sigma), and GolgiStop (BD Biosciences) were added to the culture to facilitate detection of intracellular cytokines via flow cytometry.
Live cells were stained with FITC-conjugated anti-CD4 antibody (eBioscience) and Fixable Viability Dye eFluor 506 (eBioscience) on ice, followed by fixation and permeabilization using the Foxp3 Transcription Factor Staining Kit (eBioscience). Intracellular staining was performed at room temperature using PE-conjugated anti-IL-2 antibody (eBioscience), followed by analysis with a BD LSRFortessa X-20 flow cytometer.

[3] = system: C. neoformans growth versus IL-2 in murine T cells; assay: Therapeutic index score (immunosuppressive fold change to antifungal fold change relative to FK506); parameters: species or system Cryptococcus neoformans; mouse; settings: Table 12, Example 4; FK506 = 1.0
From the text: To assess the therapeutic potential for these compounds, it was important to develop an approach to score and rank them based on antifungal and immunosuppressive activities. The therapeutic index score (TIscore) is a ratio of the immunosuppressive fold change to the antifungal fold change, with all values relative to the baseline FK506 activity (FIG. 6B). A TIscore of >1.0 indicates an increase in fungal specificity because the fold change of the immunosuppressive reduction is greater than the antifungal activity reduction. As an example, JH-FK-05 is 20-fold reduced for antifungal activity but about 180-fold reduced for immunosuppression. Therefore, the TIscore of JH-FK-05 is 9.1 (TIscore=182/20). The top two analogs were JH-FK-02 (TIscore=9.7) and JH-FK-05 (TIscore=9.1). Due to the similar TIscore, JH-FK-05 was prioritized to advance to animal trials on the merit of more pronounced antifungal activity compared to JH-FK-02.
Based on the in vitro fungal and mammalian calcineurin inhibition data, the panel of FK520 analogs was assessed and ranked. Therapeutic index (TI) scores were used to quantify the effects of structural modification on the compounds (Table 8). Therapeutic index scores were calculated for each analog as the ratio of relative change in immunosuppressive and antifungal activities compared to FK506 as previously utilized (see, I-Toy M J, et at. 2022. mBio 13:e0104922). This ratio of therapeutic benefit and host toxicity, or fungal and mammalian calcineurin inhibition, allowed us to quantify and rank these analogs. […] This is the greatest TI found within the library and allowed us to identify JH-FK-08 as a lead candidate for an in vivo study. Tolerability of JH-FK-08 was assessed by monitoring animal responses to drug dosing across 14 days, including changes in weight, fur condition, and behavior. A maximum dose of 40 mg/kg was tested in once a day dosing, and due to solubility limitations, the tolerability of JH-FK-08 at 60 and 80 mg/kg total daily doses was assessed by dosing two equal doses per day (FIG. 14). […] It should be noted that analogs JH-FK-12 and JH-FK-23 are also promising candidates with respective Tis of 24.7 and 24.5.

[4] = system: Cryptococcus neoformans (H99); assay: Broth microdilution MIC (Example 1); type: cell-based; settings: for MIC: Cryptococcus neoformans, 37° C., read-out: MIC against Cryptococcus neoformans (H99)
Experimental: (§1) MICs/minimum effective concentrations (MECs) were determined for each of the novel analogs against the three major human fungal pathogens, A. fumigatus, C. neoformans, and C. albicans. […] Thus, analogs of FK506 and FK520 can tolerate up to 100-fold reduction in antifungal activity and still be considered for in vivo testing. For C. neoformans, MICs were the most uniform and ranged from 0.2 to 2 μg/mL, which is between 4- and 40-fold reduced for antifungal activity.
(§2) In vitro antifungal activities of FK506, FK520, and analogs were assessed in RPMI 1640 (Sigma-Aldrich) for all strains tested. MICs/minimum effective concentrations (MECs) for each drug were measured using modified Clinical and Laboratory Standards Institute (CLSI) M38-A2 and M27-A3 standard in vitro antifungal susceptibility protocols. Broth microdilution assays for MIC/MEC assessment were performed as described previously (see, Juvvadi P R, et al., 2019, Nat Commun 10:4275). All antifungal assays with C. neoformans were performed at 37° C. Antifungal susceptibility testing for C. albicans was performed in the presence of a uniform 1 μg/mL concentration of fluconazole to sensitize the organism to calcineurin inhibition.

[5] = system: Candida albicans (SC5314); assay: Broth microdilution MIC (Example 1); type: cell-based; settings: Candida albicans, SC5314; in the presence of 1 μg/mL fluconazole; read-out: MIC against Candida albicans (SC5314)
Experimental: as §1, §2

[6] = system: Aspergillus fumigatus; assay: Broth microdilution MIC/MEC (Example 1); type: cell-based; settings: Aspergillus fumigatus; strain Af293; read-out: MEC against Aspergillus fumigatus (Af293)
Experimental: as §1
To assess the antifungal activity against other human fungal pathogens, JH-FK-05 was selected to test against a panel of pathogenic molds and drug-resistant A. fumigatus strains (Table 4). JH-FK-05 registered MECs as low as 1 μg/mL for some of these highly recalcitrant species, such as Mucor circinelloides, Rhizopus oryzae, and pan azole-resistant A. fumigatus (strain F14946).
as §2

Compound	MIC [4] [µg/mL]	MIC [5] [µg/mL]	minimal effective concentration [6] [µg/mL]	further results
CC[C@@H]1/C=C(\C)C(O)[C@H](C)C[C@H](OC)[C@H]2O[C@@](O)(C(=O)C(=O)N3CCCC[C@H]3C(=O)O[C@H](/C(C)=C/[C@@H]3CC[C@@H](O)[C@H](OC)C3)[C@H](C)[C@@H](O)CC1=O)[C@H](C)C[C@@H]2OC (some centres unmarked) [JH-FK-10]	–	–	–	MIC ([1]; 37° C., Table 11, read-out: C. neoformans MIC): 0.8 µg/mL (≈ 0.99 µM); MIC ([1]; read-out: C. neoformans MIC, 37° C., Table 12): 0.8 µg/mL (≈ 0.99 µM); immunosuppressive activity [2]: detectable immunosuppressive activities; IC50 ([2]; Table 12): 5.7 nM; Therapeutic Index Score [3]: 3.2
CC[C@@H]1/C=C(\C)C(O)[C@H](C)C[C@H](OC)[C@H]2O[C@@](O)(C(=O)C(=O)N3CCCC[C@H]3C(=O)O[C@H](/C(C)=C/C3CC[C@@H](O)[C@H](OC)C3)[C@H](C)[C@@H](O)C/C1=N/NC(C)=O)[C@H](C)C[C@@H]2OC (some centres unmarked) [JH-FK-18]	–	–	–	C. neoformans MIC ([1]; 37° C., Table 13): >50 µg/mL; MIC ([1]; 37° C., Table 13, read-out: C. neoformans MIC): > 50 µg/mL; antifungal activity ([1]; up to a maximum concentration of 50 μg/mL): no detectable antifungal or immunosuppressive activity; also recorded: no detectable biological activity; IL-2 production ([2]; 200 nM): no changes in IL-2 production; IC50 ([2]; Table 13): > 200 nM
CC[C@@H]1/C=C(\C)C[C@H](C)C[C@H](OC)[C@H]2O[C@@](O)(C(=O)C(=O)N3CCCC[C@H]3C(=O)O[C@H](/C(C)=C/[C@@H]3CC[C@@H](O)[C@H](OC)C3)[C@H](C)[C@@H](O)C/C1=N/NC(=O)C(F)(F)F)[C@H](C)C[C@@H]2OC [JH-FK-07]	0.2 (≈ 0.222 µM)	0.2	1.25	broad-spectrum antifungal activity / MIC ranking ([4]; C. neoformans, C. albicans, A. fumigatus): maintained high levels of broad-spectrum antifungal activity across the three species; also recorded: had the lowest MICs for both C. neoformans and C. albicans
C=CC[C@@H]1/C=C(\C)C[C@H](C)C[C@H](OC)[C@H]2O[C@@](O)(C(=O)C(=O)N3CCCC[C@H]3C(=O)O[C@H](/C(C)=C/[C@@H]3CC[C@@H](O)[C@H](OC)C3)[C@H](C)[C@@H](O)C/C1=N/NC(=O)c1ccccc1)[C@H](C)C[C@@H]2OC [JH-FK-03]	1 (≈ 1.08 µM)	0.8	1	–
C=CC[C@@H]1/C=C(\C)C[C@H](C)C[C@H](OC)[C@H]2O[C@@](O)(C(=O)C(=O)N3CCCC[C@H]3C(=O)O[C@H](/C(C)=C/[C@@H]3CC[C@@H](O)[C@H](OC)C3)[C@H](C)[C@@H](O)CC1=NNC(=O)CN(C)C)[C@H](C)C[C@@H]2OC [JH-FK-04]	2 (≈ 2.21 µM)	6.25	2	–
C=CC[C@@H]1/C=C(\C)C[C@H](C)C[C@H](OC)[C@H]2O[C@@](O)(C(=O)C(=O)N3CCCC[C@H]3C(=O)O[C@H](/C(C)=C/[C@@H]3CC[C@@H](O)[C@H](OC)C3)[C@H](C)[C@@H](O)C/C1=N/NC(C)=O)[C@H](C)C[C@@H]2OC [JH-FK-01]	1 (≈ 1.16 µM)	0.4	1	–
